# Reference: patent publication US9302988B2, “Fluoromethyl-substituted pyrrole carboxamides” (GRÜNENTHAL GMBH, priority 2012, dated 2016)
# Biological target: T1, Human CaV2.2 channels (Homo sapiens, UniProt Q00975)
# T1 construct: expressed in transfected cells
# Assay: Fluorescent assay for CaV2.2 channels using potassium depolarization to induce channel opening (FLIPR, Fluo-4)
# Type: cell-based
# Settings: 3 μM test compound, 30 mM KCl, HEK293 cells stably expressing human CaV2.2; read-out: %-Inhib (CaV2.2) @3 μM @30 mM KCl
# Outline: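 HEK293 cells stably co-expressing CaV2.2 with α2δ and β subunits plus Kir2.3 were Fluo-4 loaded, then preincubated 15 min at 25 °C with compound in 30 mM KCl buffer, pH 7.4. Depolarization was by adding buffer containing 210 mM KCl. Inhibition was taken from baseline-normalized peak fluorescence amplitude (ex 480/em 535 nm).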
# T1 sequence (Q00975 whole entry): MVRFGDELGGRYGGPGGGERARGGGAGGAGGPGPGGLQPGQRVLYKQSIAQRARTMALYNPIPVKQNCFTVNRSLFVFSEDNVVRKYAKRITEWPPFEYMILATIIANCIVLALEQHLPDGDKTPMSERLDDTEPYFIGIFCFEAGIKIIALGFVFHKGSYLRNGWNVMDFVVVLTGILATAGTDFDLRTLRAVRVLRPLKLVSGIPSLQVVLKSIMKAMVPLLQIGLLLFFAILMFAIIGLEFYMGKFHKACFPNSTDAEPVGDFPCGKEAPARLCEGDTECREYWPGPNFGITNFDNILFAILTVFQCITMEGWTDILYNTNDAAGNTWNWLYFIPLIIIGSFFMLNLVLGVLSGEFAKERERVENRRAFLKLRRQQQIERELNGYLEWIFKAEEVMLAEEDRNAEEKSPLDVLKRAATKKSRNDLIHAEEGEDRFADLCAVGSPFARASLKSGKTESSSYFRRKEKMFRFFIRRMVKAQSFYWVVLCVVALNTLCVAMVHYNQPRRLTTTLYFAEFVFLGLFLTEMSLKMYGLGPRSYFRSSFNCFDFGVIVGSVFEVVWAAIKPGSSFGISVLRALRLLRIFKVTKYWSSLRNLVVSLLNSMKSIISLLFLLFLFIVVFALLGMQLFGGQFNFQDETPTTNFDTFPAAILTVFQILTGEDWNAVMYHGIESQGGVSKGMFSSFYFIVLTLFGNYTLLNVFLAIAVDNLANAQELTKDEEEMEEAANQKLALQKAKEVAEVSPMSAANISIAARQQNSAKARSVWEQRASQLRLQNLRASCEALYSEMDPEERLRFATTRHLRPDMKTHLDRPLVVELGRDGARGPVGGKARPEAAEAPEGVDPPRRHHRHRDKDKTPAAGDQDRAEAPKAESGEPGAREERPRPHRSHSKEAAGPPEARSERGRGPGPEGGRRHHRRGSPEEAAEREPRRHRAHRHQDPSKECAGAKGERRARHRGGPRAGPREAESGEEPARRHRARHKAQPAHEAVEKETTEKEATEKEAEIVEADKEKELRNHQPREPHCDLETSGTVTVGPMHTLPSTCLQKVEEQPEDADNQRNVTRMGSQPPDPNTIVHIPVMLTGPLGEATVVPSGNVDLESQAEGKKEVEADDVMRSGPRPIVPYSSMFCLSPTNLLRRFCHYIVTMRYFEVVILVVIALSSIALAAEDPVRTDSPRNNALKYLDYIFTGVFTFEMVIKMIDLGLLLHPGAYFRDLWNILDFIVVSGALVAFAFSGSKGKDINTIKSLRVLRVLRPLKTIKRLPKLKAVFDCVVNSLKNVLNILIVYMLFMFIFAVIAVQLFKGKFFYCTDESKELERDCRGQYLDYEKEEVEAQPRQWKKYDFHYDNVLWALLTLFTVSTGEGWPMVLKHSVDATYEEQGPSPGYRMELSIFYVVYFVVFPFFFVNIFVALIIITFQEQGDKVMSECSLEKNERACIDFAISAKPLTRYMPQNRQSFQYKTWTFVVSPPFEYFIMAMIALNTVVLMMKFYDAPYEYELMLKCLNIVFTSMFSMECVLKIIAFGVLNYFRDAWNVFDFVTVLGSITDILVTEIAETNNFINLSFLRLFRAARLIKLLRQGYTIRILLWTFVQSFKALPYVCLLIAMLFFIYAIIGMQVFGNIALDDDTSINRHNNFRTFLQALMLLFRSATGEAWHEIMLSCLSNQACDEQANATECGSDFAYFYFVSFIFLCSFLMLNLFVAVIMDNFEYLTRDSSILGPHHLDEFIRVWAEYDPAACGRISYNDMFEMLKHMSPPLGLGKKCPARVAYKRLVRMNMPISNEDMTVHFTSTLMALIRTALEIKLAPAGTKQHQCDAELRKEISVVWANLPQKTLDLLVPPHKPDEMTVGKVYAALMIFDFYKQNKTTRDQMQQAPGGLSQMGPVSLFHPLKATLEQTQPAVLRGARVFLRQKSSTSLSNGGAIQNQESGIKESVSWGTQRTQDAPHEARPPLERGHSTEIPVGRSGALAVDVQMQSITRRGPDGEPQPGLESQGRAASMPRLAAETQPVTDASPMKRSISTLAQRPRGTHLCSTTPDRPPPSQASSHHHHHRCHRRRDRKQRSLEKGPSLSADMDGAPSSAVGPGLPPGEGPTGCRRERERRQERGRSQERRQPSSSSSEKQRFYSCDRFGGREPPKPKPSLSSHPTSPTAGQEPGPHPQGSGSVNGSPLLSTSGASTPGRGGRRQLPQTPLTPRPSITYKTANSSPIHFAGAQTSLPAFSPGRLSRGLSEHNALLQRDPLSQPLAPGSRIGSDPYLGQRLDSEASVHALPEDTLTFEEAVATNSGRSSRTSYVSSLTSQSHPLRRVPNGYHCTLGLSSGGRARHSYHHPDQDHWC
# T1 sequence (P54289 25-1103, further chain): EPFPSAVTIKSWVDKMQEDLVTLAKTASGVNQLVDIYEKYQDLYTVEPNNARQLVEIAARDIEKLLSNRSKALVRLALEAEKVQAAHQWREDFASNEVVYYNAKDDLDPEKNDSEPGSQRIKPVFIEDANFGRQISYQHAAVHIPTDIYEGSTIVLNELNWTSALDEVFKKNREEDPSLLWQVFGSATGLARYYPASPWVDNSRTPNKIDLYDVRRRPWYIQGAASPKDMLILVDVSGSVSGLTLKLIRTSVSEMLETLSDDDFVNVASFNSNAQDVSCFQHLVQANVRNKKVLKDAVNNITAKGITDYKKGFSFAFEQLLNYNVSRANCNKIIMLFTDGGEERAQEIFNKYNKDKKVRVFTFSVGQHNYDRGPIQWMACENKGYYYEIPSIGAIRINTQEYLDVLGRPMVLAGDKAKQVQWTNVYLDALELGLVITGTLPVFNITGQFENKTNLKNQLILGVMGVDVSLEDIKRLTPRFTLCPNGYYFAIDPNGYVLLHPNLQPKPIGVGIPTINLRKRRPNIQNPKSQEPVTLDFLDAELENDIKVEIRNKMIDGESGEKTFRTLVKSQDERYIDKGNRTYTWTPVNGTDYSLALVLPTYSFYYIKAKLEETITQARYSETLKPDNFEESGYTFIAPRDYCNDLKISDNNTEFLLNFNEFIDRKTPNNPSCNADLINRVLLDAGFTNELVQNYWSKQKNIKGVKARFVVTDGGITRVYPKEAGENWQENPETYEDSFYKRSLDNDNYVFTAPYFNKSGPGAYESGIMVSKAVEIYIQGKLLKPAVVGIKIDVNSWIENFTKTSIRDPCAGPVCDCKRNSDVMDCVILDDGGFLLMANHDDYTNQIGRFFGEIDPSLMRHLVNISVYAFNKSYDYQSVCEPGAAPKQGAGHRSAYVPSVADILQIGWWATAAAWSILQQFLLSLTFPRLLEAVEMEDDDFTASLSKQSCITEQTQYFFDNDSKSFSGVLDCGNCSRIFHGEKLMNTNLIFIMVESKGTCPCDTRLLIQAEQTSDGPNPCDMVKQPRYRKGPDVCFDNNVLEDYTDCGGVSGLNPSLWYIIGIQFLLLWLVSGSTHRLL
# T1 sequence (P54284 whole entry, further chain): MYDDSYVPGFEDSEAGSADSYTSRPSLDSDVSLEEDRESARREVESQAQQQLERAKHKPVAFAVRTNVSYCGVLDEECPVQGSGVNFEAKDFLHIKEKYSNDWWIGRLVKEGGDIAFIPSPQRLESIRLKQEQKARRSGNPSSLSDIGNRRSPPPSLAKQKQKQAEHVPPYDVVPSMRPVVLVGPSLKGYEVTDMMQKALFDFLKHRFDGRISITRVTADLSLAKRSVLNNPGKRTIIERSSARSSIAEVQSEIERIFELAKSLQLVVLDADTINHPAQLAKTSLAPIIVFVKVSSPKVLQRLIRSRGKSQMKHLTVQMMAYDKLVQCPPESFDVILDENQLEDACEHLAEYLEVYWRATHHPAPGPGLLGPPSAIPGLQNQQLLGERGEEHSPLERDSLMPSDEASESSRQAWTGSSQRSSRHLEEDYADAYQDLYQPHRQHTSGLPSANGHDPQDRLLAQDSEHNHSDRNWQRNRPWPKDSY
compound,measurement,value
"CN(CC(C)(C)C)C(=O)c1c(-c2ccc(Cl)cc2)cc(C(F)(F)F)n1Cc1cccc(S(C)(=O)=O)c1 [SC-266, 3-(4-Chlorophenyl)-N-(2,2-dimethyl-propyl)-N-methyl-1-[(3-methylsulfonyl-phenyl)-methyl]-5-(trifluoromethyl)-1H-pyrrole-2-carboxylic acid amide]",inhibition at 3 µM,75 to 95%
